Test results published in patent US10208081B2, “Bile acid derivatives as FXR/TGR5 agonists and methods of use thereof” (Enanta Pharmaceuticals, Inc., priority 2014, dated 2019).

Biological target: human FXR (NR1H4) (Homo sapiens (Human), UniProt Q96RI1)
Experiment: Human FXR (NR1H4) Assay (Gal4 promoter driven luciferase reporter, Indigo Bioscience kit IB00601)
Format: cell-based
Conditions: for Efficacy (%): efficacy normalized to CDCA set as 100%; for EC50: potency ranges
Summary of the method: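 CHO reporter cells expressing human FXR with Gal4-driven, FXR-responsive luciferase treated with compound doses (0.2% DMSO) for 22 hours at 37° C. Luciferase luminescence then measured as surrogate of FXR activation for potency and efficacy.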

human FXR (NR1H4), sequence (Q96RI1 whole entry, the tested form may be a part): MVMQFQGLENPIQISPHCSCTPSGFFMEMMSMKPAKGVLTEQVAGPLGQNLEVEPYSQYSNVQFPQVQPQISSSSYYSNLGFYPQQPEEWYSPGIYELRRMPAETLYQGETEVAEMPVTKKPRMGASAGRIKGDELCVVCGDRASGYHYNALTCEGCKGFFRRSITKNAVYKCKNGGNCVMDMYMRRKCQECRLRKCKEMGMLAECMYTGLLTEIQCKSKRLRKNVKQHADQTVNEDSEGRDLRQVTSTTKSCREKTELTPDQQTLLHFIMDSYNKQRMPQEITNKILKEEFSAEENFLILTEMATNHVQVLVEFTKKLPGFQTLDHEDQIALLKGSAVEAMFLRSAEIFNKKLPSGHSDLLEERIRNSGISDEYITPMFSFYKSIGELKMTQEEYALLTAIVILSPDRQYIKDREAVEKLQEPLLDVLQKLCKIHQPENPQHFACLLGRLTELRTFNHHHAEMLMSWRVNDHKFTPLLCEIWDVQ

SMILES | Efficacy (%) | EC50 [nM]
CC[C@H]1[C@@H](O)[C@@H]2[C@H](CC[C@]3(C)[C@@H]([C@H](C)CCNC(=O)NS(=O)(=O)Nc4ccc(C(C)(C)C)cc4)CC[C@@H]23)[C@@]2(C)CC[C@@H](O)C[C@@H]12 [Example 105] | 322 | 100 to 1000
CC[C@H]1[C@@H](O)[C@@H]2[C@H](CC[C@]3(C)[C@@H]([C@H](C)CCNC(=O)NS(=O)(=O)c4ccc(C5(C(F)(F)F)CC5)cc4)CC[C@@H]23)[C@@]2(C)CC[C@@H](O)C[C@@H]12 [Example 106] | 281 | < 100
CC[C@H]1[C@@H](O)[C@@H]2[C@H](CC[C@]3(C)[C@@H]([C@H](C)CCNC(=O)NS(=O)(=O)c4cccc5ncccc45)CC[C@@H]23)[C@@]2(C)CC[C@@H](O)C[C@@H]12 [Example 107] | 311 | 100 to 1000
CC[C@H]1[C@@H](O)[C@@H]2[C@H](CC[C@]3(C)[C@@H]([C@H](C)CCNC(=O)NS(=O)(=O)c4ccc(-c5ccccc5)s4)CC[C@@H]23)[C@@]2(C)CC[C@@H](O)C[C@@H]12 [Example 108] | 203 | 100 to 1000
CC[C@H]1[C@@H](O)[C@@H]2[C@H](CC[C@]3(C)[C@@H]([C@H](C)CCNC(=O)NS(=O)(=O)c4cnn(CC)c4)CC[C@@H]23)[C@@]2(C)CC[C@@H](O)C[C@@H]12 [Example 109] | 219 | 100 to 1000
C[C@H](CCNC(=O)NS(=O)(=O)c1ccc(C(C)(C)C)cc1)[C@H]1CC[C@H]2[C@@H]3[C@H](O)C[C@@H]4C[C@H](O)CC[C@]4(C)[C@H]3CC[C@]12C [Example 110] | 320 | 1000 to 10000
CC[C@H]1[C@@H](O)[C@@H]2[C@H](CC[C@]3(C)[C@@H]([C@H](C)CCNC(=O)NS(=O)(=O)c4ccc(C(C)(C)C)s4)CC[C@@H]23)[C@@]2(C)CC[C@@H](O)C[C@@H]12 [Example 111] | 314 | < 100
CC[C@H]1[C@@H](O)[C@@H]2[C@H](CC[C@]3(C)[C@@H]([C@H](C)CCNC(=O)NS(=O)(=O)c4cccc(N(C)C)c4)CC[C@@H]23)[C@@]2(C)CC[C@@H](O)C[C@@H]12 [Example 112] | 287 | < 100
CC[C@H]1[C@@H](O)[C@@H]2[C@H](CC[C@]3(C)[C@@H]([C@H](C)CNC(=O)NS(=O)(=O)c4ccc(C5CCCCC5)cc4)CC[C@@H]23)[C@@]2(C)CC[C@@H](O)C[C@@H]12 [Example 113] | 366 | < 100
CC[C@H]1[C@@H](O)[C@@H]2[C@H](CC[C@]3(C)[C@@H]([C@H](C)CNC(=O)NS(=O)(=O)c4ccc(-c5ccccc5)s4)CC[C@@H]23)[C@@]2(C)CC[C@@H](O)C[C@@H]12 [Example 114] | 322 | < 100
CC[C@H]1[C@@H](O)[C@@H]2[C@H](CC[C@]3(C)[C@@H]([C@H](C)CNC(=O)NS(=O)(=O)c4cccc(C(C)(C)C)c4)CC[C@@H]23)[C@@]2(C)CC[C@@H](O)C[C@@H]12 [Example 115] | 291 | 100 to 1000
CC[C@H]1[C@@H](O)[C@@H]2[C@H](CC[C@]3(C)[C@@H]([C@H](C)CNC(=O)NS(=O)(=O)c4cccc(OC(F)(F)F)c4)CC[C@@H]23)[C@@]2(C)CC[C@@H](O)C[C@@H]12 [Example 116] | 322 | < 100
CC[C@H]1[C@@H](O)[C@@H]2[C@H](CC[C@]3(C)[C@@H]([C@H](C)CNC(=O)NS(=O)(=O)c4ccc5c(c4)OCO5)CC[C@@H]23)[C@@]2(C)CC[C@@H](O)C[C@@H]12 [Example 117] | 305 | < 100
